In patent publication US9365851B2, “Spalt-like transcription factor 4 (SALL4) and uses thereof” (National University of Singapore, priority 2011, dated 2016):

Key:
HDAC complex = target: T1, HDAC complex (Homo sapiens, UniProt Q09028); test: Fluorescent polarization competitive binding in SNU-398 nuclear extracts; conditions: Example 6
T1 construct: endogenous in cells; host or cells: SNU-398 nuclear extract
Procedure: Below are the amino acid sequences of the peptides used in this study. In the mutant peptide (mut), Lys 5 is replaced with an alanine residue. […] In the first lane marked “Input”, 10% of the extracts were subjected to western blot analysis without immunoprecipitation. […] Extracts were subsequently immunoprecipitated with anti-FITC antibody and the complexes pulled down were subjected to an HDAC activity assay as described in the methods. TSA was added at a concentration of 100 nM. Input is the sample in which 10% of the extract was assayed for HDAC activity without the immunoprecipitation step. […] Competitive binding of nonlabeled wild type or scrambled peptides was measured by fluorescent polarization. […] The fluorescent polarization (y axis) is decreased if the FITC-labeled peptide is displaced from a larger complex.
Next tested was the binding affinity of the wild type and scrambled peptides to the HDAC complex. For this, Fluorescent Polarization (FP), a technology based on molecular movement and rotation in which fluorescent molecules are excited with polarized light, was used. If the fluorescent molecules are part of a large complex, they rotate less and the emitted light has high polarity. In contrast, smaller molecules rotate faster and have low polarity (“depolarized”). […] Using this approach, FITC-labeled wild type or scrambled peptides were first mixed with nuclear extracts from SNU-398 cells. Serial dilutions of unlabeled wild type or scrambled peptides were then added as competitors respectively, and measured by FP assay.

SNU-398 cells = test: Cell viability assay (MTT/MTS); format: cell-based, human; conditions: for cell viability on co-treatment with wt peptide (rescue): SNU-398, wt peptide + PTEN inhibitor
Procedure: (§1) Cell viability was determined 72 hours after peptide treatments. Absorbance at 490 nm is directly correlated to cell viability. Wild type functional SALL4 peptide (wt), mutant non-functional SALL4 peptide (Mut.), trichostatin A (TSA), scrambled control peptide (Scr.), wild type peptide+PTEN inhibitor SF1670 (wt+Inh.) were given to the cells at the indicated concentration. PTEN inhibitor concentration was 400 nM. (31C, 31D) Western blot analyses of the effects of peptides on PTEN, AKT, and pAKT expression on SNU-398 (31C) and SNU-387 (31D) cells 72 hours following peptide treatments. 20 μM of wt or Scr. peptide or 100 nM of TSA was used. PTEN inhibitor concentration was 400 nM. (31E) Representative images show NOD/SCID mice transplanted with Scr peptide- and wt peptide-treated SNU-398 cells (left) and the dissected subcutaneous tumors (right). Arrow indicates subcutaneous tumor. (31F) Growth curve of subcutaneous tumors (left panel) and tumor weight of tumors dissected at day 26 post-transplantation (right panel). Results are mean±s.d. n=5; * P<0.05. (31G) Representative images show NOD/SCID mice transplanted with 3 million SNU-398 cells at the left flank and treated intraperitoneally for five consecutive days with 56 mg/kg body weight TAT-Mut. peptide or 60 mg/kg body weight wt peptide (top panel) and the dissected subcutaneous tumors (bottom). (31H) Tumor weight of tumors dissected at day 18 post-transplantation and post-treatment of mice treated intraperitoneally with TAT fusion peptides as described in 5 g. Results are mean±s.d. n=5; * P<0.05.
(§2) Cell viability assay (MTT) (Invitrogen) was performed according to the manufacturer's instructions. Briefly—10000 cells were seeded in 100 ul medium in 96 well plates. The next day cells were treated as indicated on the figures. At the designated time after the treatment 20 ul of 5 mg/ml MTT solution was added to each well. After 3.5 h incubation at 37 C the medium was removed and the reaction was terminated with a solution of 4 mM HCl, 0.1% Nondet P-40 (NP40) all in isopropanol in dark on orbital shaker for […]. at room temperature. The absorbance was read at 590 nm with a reference filter of 620 nm in Spectromax M3 (ABI) spectrophotometer.
(§3) Multiple leukemic and solid tumor cancer cell lines with high or low/no SALL4 expression (FIG. 10A) were chosen to test the biological effect(s) of the wild type peptide. Wild type or scrambled peptide was delivered into tumor cells at various concentrations, and their effects on cells were evaluated 72 hours post-treatment by the MTS cell viability assay. […] The effect of wild type peptide is SALL4-specific, as it had no effect on KBM5, an AML cell line with undetectable endogenous SALL4 expression. We were surprised to see that the wild type peptide had no effect on a high SALL4-expressing endometrioid cancer cell line, AN3CA. This prompted checking whether PTEN, a gene repressed by SALL4 through its interaction with NuRD 27, was present in this cell line. According to the model herein, the function of wild type peptide requires both the expression of SALL4 and intact SALL4 downstream target genes, such as PTEN. In tumor cells with PTEN deletion, even though wild type peptide could compete with endogenous SALL4 in interacting with the HDAC complex, an anti-proliferative effect might not be observed. Therefore, expression of PTEN was evaluated in AN3CA cells along with other cell lines. While PTEN protein was present in all the other cell lines, it was absent in AN3CA cells (FIG. 10C), with reported deletion mutation of the gene in this cell line 40,41. […] Furthermore, the anti-proliferative effect also required certain downstream targets, such as PTEN.
7000 cells were seeded in each wells of a microtiter plate in 100 μL of complete medium. Cells from each treatment were seeded in duplicate. Controls using the same medium without cells were set up in parallel. […]

SNU-387 cells = test: Cell viability assay (MTT/MTS); format: cell-based, human; conditions: SNU-387, wt peptide + PTEN inhibitor
Procedure: as §1, §2
7000 cells were seeded in each wells of a microtiter plate in 100 μL of complete medium. Cells from each treatment were seeded in duplicate. Controls using the same medium without cells were set up in parallel. At various time points, 317 μg/mL of 3-(4,5-dimethylthiazol-2-yl)-5-(3-carboxymethoxyphenyl)-2-(4-sulfophenyl)-2H-tetrazolium (CellTiter96® AQueous One Solution Cell Proliferation Assay, Promega) was added to each well. After four hours incubation of the tetrazolium salt, absorbance at 490 nm was read by a microplate reader.

THP1 cells = test: MTS cell viability assay; format: cell-based; conditions: THP1, wt peptide + PTEN inhibitor
Procedure: as §3
(§4) To further test whether the effect of wild type peptide on tumor cells is related to PTEN, a PTEN inhibitor (SF1670) was used (Li et al., Blood, 117:6702-6713). […] As a control for the specificity of SALL4, KBM5, a non-SALL4-expressing cell line was also treated with PTEN inhibitor.

KBM5 cells = test: MTS cell viability assay; format: cell-based; conditions: KBM5, wt peptide + PTEN inhibitor
Procedure: as §3, §4

PTEN/AKT pathway = PTEN/AKT pathway expression in SNU-398 cells after treatment (Western blot, mRNA); format: cell-based, human; conditions: SNU-398
From the text: The induction of Pten expression was not affected when wt peptide was administrated together with a Pten inhibitor. AKT, a molecule with levels of phosphorylation controlled by the expression of Pten was affected by the wt peptide addition accordingly. […] The effect of wt peptide on pAKT was abrogated by the Pten inhibitor. […] In contrast, the protein expression level of endogenous Pten was very high in the none-SALL4 expressing SNU387 cells.
Then tested was whether this peptide could reverse the repressive effect of SALL4 on its target genes. The focus was onPTEN, since it is implicated in SALL4-mediated leukemogenesis (Yang et al., Blood, 112:805-813 (2008); Lu et al., PLoS One, 4:e5577 (2009)). In addition, it was previously reported that SALL4 could specifically bind to the PTEN promoter region in a chromatin immunoprecipitation (ChIP) assay (Lu et al., PLoS One, 4:e5577 (2009)). When SALL4 was overexpressed in 293T cells, an enrichment of SALL4 as well as decreased H3 acetylation at this binding site was observed, which correlated with decreased PTEN RNA expression (Lu et al., PLoS One, 4:e5577 (2009))). Therefore, it was hypothesized that SALL4 could recruit the HDAC/NuRD complex to repress PTEN, and that the wild type peptide would compete with endogenous SALL4 in recruiting the HDAC/NuRD complex to the PTEN promoter, and release the repression effect of SALL4 on PTEN. Furthermore, this model would predict that wild type peptide treatment of SALL4-expressing cells would lead to increased epigenetic markers of gene activation, such as H3 acetylation, at the PTEN promoter binding site, as well as an increase in PTEN expression. To test this possibility, SNU-398 cells were treated with scrambled or wild type peptide and subsequently evaluated for PTEN expression and H3 acetylation at the SALL4 binding site at the PTEN promoter region. […] Therefore, the results herein are compatible with the model that SALL4 recruits HDACs to repress PTEN expression, and blocking the SALL4-HDAC interaction with the wild type peptide results in increased expression of PTEN.
To confirm the involvement of PTEN tumor suppressor in SALL4 peptide-induced reduction of number of viable HCC cells, PTEN expression was analyzed by western blot upon drug treatment. […] Whether the increase in PTEN expression upon SALL4 peptide treatment has an effect in PI3K signalling by dephosphorylating AKT was examined.
To confirm the involvement of the PTEN tumor suppressor in the SALL4 peptide-induced reduction of HCC cell viability, PTEN expression was analyzed by western blot upon drug treatment. […] If the increase in PTEN expression has an effect in PI3K signaling was next examined. PTEN functions as a phosphatase to dephosphorylate AKT.

T1 sequence (Q09028 whole entry, one chain of several): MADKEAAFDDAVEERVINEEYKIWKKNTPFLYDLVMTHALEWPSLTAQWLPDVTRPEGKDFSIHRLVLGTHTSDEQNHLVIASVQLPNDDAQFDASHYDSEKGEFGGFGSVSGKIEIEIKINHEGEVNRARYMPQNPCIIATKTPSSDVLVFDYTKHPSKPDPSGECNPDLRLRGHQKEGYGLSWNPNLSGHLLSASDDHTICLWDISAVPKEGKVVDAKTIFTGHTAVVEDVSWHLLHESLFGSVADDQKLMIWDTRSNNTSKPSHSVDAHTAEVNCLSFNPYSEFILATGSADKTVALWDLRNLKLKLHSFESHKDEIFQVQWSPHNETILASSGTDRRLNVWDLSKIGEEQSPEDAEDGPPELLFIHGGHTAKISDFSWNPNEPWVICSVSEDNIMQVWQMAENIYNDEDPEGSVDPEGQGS

Molecule	binding affinity by FP (HDAC complex)	cell viability / number of viable cells (SNU-398 cells; SNU-398 (high SALL4), 72 h)	cell viability on co-treatment with wt peptide (SNU-387 cells)	cell viability on co-treatment with wt peptide (rescue) (SNU-398 cells)	cell viability on co-treatment with wt peptide (rescue) (SNU-398 cells; listed as PTEN inhibitor)	cell viability on co-treatment with wt peptide (rescue) (SNU-398 cells; listed as SF-1670)	cell viability on co-treatment with wt peptide (rescue) (THP1 cells)	cell viability on co-treatment with wt peptide (KBM5 cells)	effect of wt peptide on pAKT on co-treatment with PTEN inhibitor (PTEN/AKT pathway; listed as PTEN inhibitor)	effect of wt peptide on pAKT on co-treatment with PTEN inhibitor (PTEN/AKT pathway; listed as Pten inhibitor)
NH2-YGRKKRRQRRR-MSAAAQAKPHI-COOH (H-YGRKKRRQRRRMSAAAQAKPHI-OH) [TAT-Mut, reference compound]	minimal binding	did not exhibit such cell killing effect	–	–	–	–	–	–	–	–
CC(C)(C)C(=O)Nc1ccc2c(c1)C(=O)C(=O)c1ccccc1-2 [SF1670, reference compound]	–	–	showed no effect as well	able to rescue the phenotype	able to rescue the phenotypes	restored the cell viability to a baseline level	restored the cell viability to the baseline levels	showed no effect as well	can be rescued	abrogated
